Experiments:
[1] = tested on: RAW264.7 mouse macrophages; test: Determination of NO generation induced by LPS; type: cell-based; conditions: 10 μM, 1 μg/mL LPS, 24 hours, RAW264.7 (FIG. 2)
Description: The results are expressed as the multiple of the NO content in the cell culture supernatant of the administration group (10 μM) as compared with that in the cell culture supernatant of the control group (DMSO group), in which compared with the control group, *P<0.05, **P<0.01, ***P<0.001.
NO is a reactive nitrogen species (RNS) and an important gas signal molecule. Macrophages could convert arginine into NO which participated in the body's inflammatory response. Therefore, determination of inhibitory activity of a drug on NO generation was one of the classic methods to evaluate drug's anti-inflammatory ability. RAW264.7 cells at exponential growth phase were inoculated into a 96-well plate at 1×10^4 cells/200 μL. well of medium. After adherence, the medium was discarded, and the cells were subjected to drug treatments. Normal group (serum-free medium), LPS model group (serum-free medium containing 1 μg/mL LPS), LPS+drug group (serum-free medium containing 1 μg/mL LPS, 10 μM gemfibrozil or the compound of the present application) were established, and 3 repeated wells were set for each group. After 24 hours incubation in incubator, cell supernatant of each well was collected and assay was performed according to the instructions of NO determination kit (Nanjing Jiancheng). The absorbance value of each well at wavelength of 540 nm was read and NO content was calculated.

phosphorylated IRS-1 = test: Phosphorylated IRS-1 level by Western blotting in HepG2; type: cell-based, human; conditions: 1 μM, 24 hours, HepG2, Western blotting (FIG. 6C)
From the text: (§1) Carnitine palmitoyltransferase (CPT1α) is a rate-limiting enzyme of fatty acid oxidation. When the body or tissues are lacking in energy, CPT1α catalyzes the entry of fatty acids into mitochondria for […], and at the same time, CPT1α is also involved in the regulation of fatty acid-induced insulin resistance and inflammation. Protein kinase B/glycogen synthase kinase 3β (AKT/GSK3β) signaling pathway and insulin receptor substrate 1 (IRS-1) are key signaling pathways that regulate glucose metabolism in response to insulin signal. Therefore, by determining the effects of compounds on the CPT1α protein level and the AKT, GSK3β and IRS-1 protein phosphorylation levels, it is possible to evaluate the regulatory effects of the compounds on glycolipid metabolism.
(§2) After human liver cancer cells HepG2 were incubated with the compound of the present application or the control drug at 1 μM for 24 hours, the CPT1α protein level and the AKT, GSK3β and IRS-1 phosphorylated protein levels in the cells were determined by Western blotting; after gray-scale scanning by using Image J15.0.1, normalization was performed by using β-tubulin protein level as internal control, and the quantitative analysis results were shown in FIG. 6.

NF-κB = NF-κB luciferase reporter gene transcriptional activity in SW480 cells; type: cell-based, human; conditions: 50 μM, 6 hours, SW480 stably transfected (FIG. 3)
Description: (§3) NF-κB was the most important inflammatory signal pathway. SW480 human colon cancer cells stably transfected with a luciferase reporter gene driven by NF-κB were used to determine the effects of the compound of the present application and the control drug gemfibrozil on NF-κB transcriptional activity, which comprised the following steps. • (1) Cells stably transfected with NF-κB Luc were cultivated to exponential growth, inoculated at a culture medium concentration of 1×10^5/[…] in a 24-well plate, and cultured for 24 hours, the medium was discarded, and the test compound or gemfibrozil formulated with serum-free medium at 50 μM were added to the 24-well plate and incubation was continued for 6 hours. After washing once with 200 μL of PBS, 100 μL of reporter gene cell lysis buffer was added, the cells were lysed on ice for 10 minutes, and the cell lysate was collected by pipetting. • (2) After centrifugation was performed at 8000 rpm and 4° C. for 10 min, the supernatant was pipetted for fluorescence assay. • (3) The measurement gap time of chemiluminescence analyzer was set to 2 s and the measurement time was set to 10 s. Automatic sample injection was adopted, 50 μL of luciferase assay reagent was added to each well. The reporter gene cell lysis buffer was used as a blank control. • (4) After centrifugation, the supernatant was taken, and the BCA method was used to determine the protein concentration so as to normalize the reporter gene results.

PPARγ = PPARγ mRNA expression by real-time quantitative PCR in HepG2; type: cell-based, human; conditions: 1 μM, 6 hours, HepG2 (FIG. 5B)
From the text: (§4) Peroxisome proliferation factor activated receptor (PPAR) is an important nuclear receptor that regulates glycolipid metabolism, including three subtypes: α, β/δ and γ. Peroxisome proliferator-activated receptor γ coactivator 1α (PGC-1α) is its auxiliary transcriptional activator. Acyl-CoA oxidase 1 (ACOX1) is the first rate-limiting enzyme for fatty acid β oxidation. Fatty acid binding protein 1 (FABP1) is highly expressed in liver, and can bind fatty acid, heme and other molecules to reduce their toxicity and damage. Up-regulating the expression level of these genes helps to improve the body's metabolism, and their agonists are an important class of anti-metabolic drugs. After the compound of the present application (1 μM) and the control drug gemfibrozil (1 μM) were incubated with human liver cancer cells HepG2 for 6 hours, real-time fluorescent quantitative PCR method was used to determine the relative expression of mRNA of related genes in the cells.
(§5) The company which synthesized the primers was Suzhou Hongxun Biotechnology Co., Ltd. Tranzol reagent (Tranzol total RNA extraction reagent, TransGen Biotech) was used to extract total RNA from tissues. 5× All-In-One RT MasterMix reverse transcription kit (Abcam, USA) and real-time quantitative PCR Master Mix (Aidlab Biotechnologies Co., Ltd) were used. Bio-Rad CFX Connect™ Real-Time PCR Detection System for qPCR was used, and 2^−ΔΔCT method was used for data analysis. The expression level of mRNA in the normal control group was set to 1, and the relative expression level of mRNA in the administration group was calculated, so as to confirm whether the active compound affected the PPAR pathway, thereby further regulating lipid metabolism.

[2] = tested on: antioxidant response element (ARE); test: ARE luciferase reporter gene activity in HepG2 cells; type: cell-based, human; conditions: 50 μM, HepG2 stably transfected (FIG. 4)
Description: as §3
In this experimental example, the luciferase activity in HepG2 human liver cancer cells stably transfected with a luciferase reporter gene driven by antioxidant response element (ARE) was determined to evaluate the regulatory effects of the compound of the present application and gemfibrozil on the transcriptional activity of transcription factor Nrf2 and the cellular oxidative stress response signals, in which the operation process of the reporter gene assay was the same as that of Experimental Example 2.2.

PGC1α = PGC1α mRNA expression by real-time quantitative PCR in HepG2; type: cell-based, human; conditions: 1 μM, 6 hours, HepG2 (FIG. 5C)
From the text: as §4, §5

CPT1α = CPT1α protein level by Western blotting in HepG2; type: cell-based, human; conditions: 1 μM, 24 hours, HepG2, Western blotting (FIG. 6A)
From the text: as §1, §2

db/db mice = test: Diabetes mellitus model (db/db mice); type: in vivo, mouse; conditions: intragastric once a day for 28 days, 50 mg/kg (pioglitazone 6 mg/kg)
From the text: Animal model: C57BL/KsJ-leprdb/leprdb diabetic (db/db) mice were widely used as animal models of type 2 diabetes mellitus, in which spontaneous mutations of leptin receptor (Leptin receptor, Lepr) caused extreme obesity, polyphagia, diabetes and polyuria. In this experiment, db/db mice (purchased from the Department of Animals, Health Science Center of Peking University) were selected. In the experiment, 28 db/db mice were used, and the animals with blood glucose of about 7-13 mmol/L were selected. […] Intragastric administration was adopted with an administration volume of 10 ml/kg. […] The administration was performed once a day for 28 consecutive days. From the day of oral administration, the physiological changes of the animals were observed every day. Blood glucose was measured every 3 days (Roche blood glucose meter) and blood glucose difference (Δ) was calculated by the following formula: blood glucose difference (Δ)=the blood glucose of the day—the initial blood glucose (the initial blood glucose difference was zero). For mice in each experimental group, blood was collected, serum was separated, and liver was taken for wet-weight measurement after necropsy; liver tissue was taken and fixed for pathological examination, H.E. staining and oil red O staining (Wuhan Zishan Biotechnology Co., Ltd.) were performed, and mouse liver lesions were observed under light microscope; routine examination of blood was performed by Animal Laboratory Department, Health Science Center of Peking University to measure the following indexes: white blood cell count (WBC), red blood cell count (RBC), lymphocyte count (LY), platelet (PLT) and so on; biochemical laboratory examination of blood was performed by Laboratory Medicine, Third Hospital, Peking University to measure the following indexes: triglycerides (TG), total cholesterol (T-CHO), high-density lipoprotein cholesterol (HDL-C), low-density lipoprotein cholesterol (LDL-C) and so on.

Compound	NO generation induced by LPS [1]	phosphorylation level of IRS-1 (phosphorylated IRS-1)	activity of NF-κB reporter gene (NF-κB)	ARE reporter gene activity [2]	further results
Cc1cc(OCCC(C)(C)C(=O)O)c(C)cc1Br [BJMU-111, 4-(4-bromo-2,5-dimethylphenoxy)-2,2-dimethylbutanoic acid]	could inhibit NO generation	–	–	–	–
Cc1ccc(C)c(OCCCC(C)(C)C(=O)O)c1Cl [BJMU-209, 5-(2-chloro-3,6-dimethylphenoxy)-2,2-dimethylpentanoic acid]	–	significantly increased the phosphorylation level of IRS-1	could significantly inhibit the activity of NF-κB reporter gene	–	–
Cc1cc(OCCCC(C)(C)C#N)c(C)cc1Br [BJMU-309, 5-(4-bromo-2,5-dimethylphenoxy)-2,2-dimethylpentanenitrile]	–	significantly increased the phosphorylation level of IRS-1	could significantly inhibit the activity of NF-κB reporter gene	–	PPARγ mRNA expression (PPARγ): significantly induced PPARγ mRNA expression
Cc1cc(OCCCC(C)(C)C(=O)O)c(C)c(C)c1Br [BJMU-315, 5-(4-bromo-2,3,5-trimethylphenoxy)-2,2-dimethylpentanoic acid]	–	–	could significantly inhibit the activity of NF-κB reporter gene	–	–
CCC(C)(CCCOc1cc(C)c(Br)cc1C)C(=O)O (centres unmarked) [BJMU-401, 5-(4-bromo-2,5-dimethylphenoxy)-2-ethyl-2-methylpentanoic acid]	could inhibit NO generation	–	–	could significantly activate the ARE reporter gene activity	–
Cc1cc(OCCCCC(C)(C)C(=O)O)c(C)cc1Br [BJMU-403, 6-(4-bromo-2,5-dimethylphenoxy)-2,2-dimethylhexanoic acid]	could inhibit NO generation	–	–	could significantly activate the ARE reporter gene activity	–
COc1cc(Br)c(C)cc1OCCCC(C)(C)C(=O)O [BJMU-412, 5-(4-bromo-2-methoxy-5-methylphenoxy)-2,2-dimethylpentanoic acid]	–	significantly increased the phosphorylation level of IRS-1	–	could significantly activate the ARE reporter gene activity	PGC1α mRNA expression (PGC1α): significantly induced PGC1α mRNA expression
Cc1cc(Br)c(C)c(I)c1OCCCC(C)(C)C(=O)O [BJMU-413, 5-(4-bromo-2-iodo-3,6-dimethylphenoxy)-2,2-dimethylpentanoic acid]	could inhibit NO generation	–	–	–	–
Cc1cc(Br)c(C)c(O)c1OCCCC(C)(C)C(=O)O [BJMU-415, 5-(4-bromo-2-hydroxy-3,6-dimethylphenoxy)-2,2-dimethylpentanoic acid]	could inhibit NO generation	significantly increased the phosphorylation level of IRS-1	could significantly inhibit the activity of NF-κB reporter gene	could significantly activate the ARE reporter gene activity	PGC1α mRNA expression (PGC1α): significantly induced PGC1α mRNA expression; CPT1α protein level (CPT1α): significantly increased CPT1α protein level; PPARγ mRNA expression (PPARγ): significantly induced PPARγ mRNA expression
Cc1cc(OCCCC(C)(C)C(=O)O)c(C)c(O)c1Br [BJMU-416, 5-(4-bromo-3-hydroxy-2,5-dimethylphenoxy)-2,2-dimethylpentanoic acid]	–	significantly increased the phosphorylation level of IRS-1	–	could significantly activate the ARE reporter gene activity	–
CCc1ccc(CCOc2ccc(CC3SC(=O)NC3=O)cc2)nc1 (centres unmarked) [Pioglitazone, pioglitazone]	–	–	–	–	AHDL (high density lipoprotein) (db/db mice): 1.65 ± 0.29 mmol/L; ALDL (low density lipoprotein) (db/db mice): 0.38 ± 0.03 mmol/L; ALT (db/db mice): 225.43 ± 79.31 U/L; AST (db/db mice): 212.79 ± 91.2 U/L; CHOL (total cholesterol) (db/db mice): 3.45 ± 0.26 mmol/L; CK (db/db mice): 1482.86 ± 707.74 U/L; CREA (db/db mice): 12 ± 3.91 µmol/L; TGL (triglycerides) (db/db mice): 2.17 ± 0.61 mmol/L

Reference: US12365643B2, “Phenoxy carboxylic acid compounds and medical uses thereof” (QINGDAO RISING BIOTECHNOLOGY CO., LTD, priority 2018, dated 2025)
